The results in this text go back to PMC3242765, “Inhibitors of Alphavirus Entry and Replication Identified with a Stable Chikungunya Replicon Cell Line and Virus-Based Assays” (PLoS ONE, 2011).

Each structure is given as a SMILES string.

The first assay relates to SFV-Rluc.
Settings: not given
With `Cc1nnc(NS(=O)(=O)c2ccc(N)cc2)s1` [PC-200], the “SFV replication % left (surviving fraction, remaining percentage of SFV replication)” value was 100.4%.

`CCN(CC)CCNC(=O)c1ccc(N)cc1.Cl` [PC-166]: the “SFV replication % left (surviving fraction, remaining percentage of SFV replication)” value was 89.0%.

As for `CCCCNc1ccc(C(=O)OCCN(C)C)cc1.Cl` [PC-215], the “SFV replication % left (surviving fraction, remaining percentage of SFV replication)” value came out at 102.8%.

With `CCC1(c2ccccc2)C(=O)N=C([O-])NC1=O.[Na+]` (stereo not drawn) [PC-189], the “SFV replication % left (surviving fraction, remaining percentage of SFV replication)” value was found to be 88.1%.

Consider `N=C(N)NS(=O)(=O)c1ccc(N)cc1` [PC-196], for which the “SFV replication % left (surviving fraction, remaining percentage of SFV replication)” value came to 63.5%.

Turning to `CC(C)NCC(O)COc1ccc(CC(N)=O)cc1` (stereo not drawn) [Atenolol], the “SFV replication % left (surviving fraction, remaining percentage of SFV replication)” value amounted to 44.2%.

For the molecule `CC(CN1c2ccccc2Sc2ccccc21)N(C)C.Cl` (stereo not drawn) [PC-169], the “SFV replication % left (surviving fraction, remaining percentage of SFV replication)” value amounted to 48.8%.

For the molecule `CC(C)(C)NCC(O)c1ccc(O)c(CO)c1.CC(C)(C)NCC(O)c1ccc(O)c(CO)c1.O=S(=O)(O)O` (stereo not drawn) [PC-185], the “SFV replication % left (surviving fraction, remaining percentage of SFV replication)” value is given as 105.0%.

Take `CC(C)[N+](C)(CCOC(=O)C1c2ccccc2Oc2ccccc21)C(C)C.[Br-]` [PC-171]: the “SFV replication % left (surviving fraction, remaining percentage of SFV replication)” value is listed as 77.0%.

The assay is the same for the next values; noted with them: Supplementary Table 2, moderately active compounds (25 - 60% remaining), primary screen at 50 µM.
Turning to `Cc1cc2nc3c(=O)[nH]c(=O)nc-3n(C[C@H](O)[C@H](O)[C@H](O)CO)c2cc1C` [PC-182], the “% left (remaining SFV replication)” value is recorded as 43.1%.

As to `C#CCN(C)[C@H](C)Cc1ccccc1.Cl` [PC-055], the “% left (remaining SFV replication)” value turned out to be 57.6%.

Turning to `O=C1CN=C(c2ccccc2)c2cc([N+](=O)[O-])ccc2N1` [PC-130], the “% left (remaining SFV replication)” value was determined as 46.6%.

Take `COc1cc(-c2oc3cc(O)cc(O)c3c(=O)c2O)ccc1O` [NC-056]: the “% left (remaining SFV replication)” value is recorded as 28.9%.

Take `Cc1ccc(C(C)C)c(O)c1` [NC-101]: the “% left (remaining SFV replication)” value is listed as 42.0%.

Staying with this assay, now noted: primary screening of chemical libraries; compounds tested at 50 µM.
Consider `O=c1ccc2ccc(O)cc2o1` [NC-104], for which the “SFV replication % left” value stood at 93.1%.

On to `COc1c2occc2cc2ccc(=O)oc12` [NC-129], for which the “SFV replication % left” value is 86.7%.

Regarding `CC(C)(O)C(Cl)(Cl)Cl` [PC-042], the “SFV replication % left” value is given as 84.2%.

For `CCNCC(O)c1cccc(O)c1` (stereo not drawn) [PC-078], the “SFV replication % left” value was 116.8%.

For the molecule `O=c1ccc2ccc(O)c(O)c2o1` [NC-021], the “SFV replication % left” value is given as 81.7%.

Consider `O=C(O)/C=C/c1ccccc1O` [NC-014], for which the “SFV replication % left” value was determined as 77.6%.

As to `O=C(O)c1ccc(O)c(O)c1` [NC-077], the “SFV replication % left” value was found to be 21.1%.

With `C[C@@]12CCC[C@H]1[C@@H]1CC[C@H]3CCCC[C@]3(C)[C@H]1CC2` [PC-013], the “SFV replication % left” value was 53.0%.

`O=C(O)/C=C/c1ccc(O)c(O)c1` [NC-010]: the “SFV replication % left” value is 98.7%.

On to `O=c1cc(O)c2ccccc2o1` [NC-117], for which the “SFV replication % left” value turned out to be 100.2%.

For `COc1cc(O)c2c(=O)c(OC)c(-c3ccc(OC)c(OC)c3)oc2c1` [NC-081], the “SFV replication % left” value came out at 65.0%.

With `CC(CCc1ccccc1)NCC(O)c1ccc(O)c(C(N)=O)c1.Cl` (stereo not drawn) [PC-105], the “SFV replication % left” value amounted to 72.5%.

Consider `CC(=O)OCC(=O)[C@@]1(O)CC[C@H]2[C@@H]3CCC4=CC(=O)CC[C@]4(C)[C@H]3[C@@H](O)C[C@@]21C` [PC-092], for which the “SFV replication % left” value is given as 116.8%.

`O=C(O)c1cc(-c2ccccc2)nc2ccccc12` [PC-048]: the “SFV replication % left” value is 65.1%.

Regarding `CNC(C)(C)Cc1ccccc1.CNC(C)(C)Cc1ccccc1.O=S(=O)(O)O` [PC-111], the “SFV replication % left” value is given as 81.8%.

Regarding `CC1=CC(=O)c2ccccc2C1=O` [PC-109], the “SFV replication % left” value was 28.3%.

For `CN(C)CC[C@@H](c1ccc(Br)cc1)c1ccccn1.O=C(O)/C=C\C(=O)O` [PC-058], the “SFV replication % left” value is reported as 69.6%.

As to `Cc1c(C)c2c(c(C)c1O)CCC(C)(C(=O)O)O2` (stereo not drawn) [NC-103], the “SFV replication % left” value was 76.9%.

Take `O=c1c(O)c(-c2ccc(O)c(O)c2)oc2cc(O)c(O)c(O)c12` [NC-079]: the “SFV replication % left” value came to 90.2%.

Turning to `O=C1CN=C(c2ccccc2F)c2cc(Cl)ccc2N1` [PC-057], the “SFV replication % left” value was determined as 68.5%.

Take `Cc1ccccc1OCC(O)CO` (stereo not drawn) [PC-110]: the “SFV replication % left” value turned out to be 79.2%.

As for `CNCCC=C1c2ccccc2CCc2ccccc21.Cl` [PC-136], the “SFV replication % left” value came to 5.3%.

As for `CN(C)CC[C@@H](c1ccc(Cl)cc1)c1ccccn1.O=C(O)/C=C\C(=O)O` [PC-059], the “SFV replication % left” value was 68.1%.

On to `CC(=O)CC(c1ccccc1)c1c(O)c2ccccc2oc1=O` (stereo not drawn) [NC-118], for which the “SFV replication % left” value stood at 79.5%.

With `COc1ccc2c(C)cc(=O)oc2c1` [NC-120], the “SFV replication % left” value was 72.2%.

For the molecule `C=CCC1(CC=C)C(=O)NC(=O)NC1=O` [PC-008], the “SFV replication % left” value was determined as 45.6%.

Consider `COc1ccc2c(c1OC)C(=O)O[C@@H]2[C@H]1c2c(cc3c(c2OC)OCO3)CCN1C` [PC-137], for which the “SFV replication % left” value is recorded as 103.5%.

Turning to `O=c1ccc2cc(O)c(O)cc2o1` [NC-126], the “SFV replication % left” value worked out at 103.6%.

In the case of `CCOc1ccc(NC(N)=O)cc1` [PC-071], the “SFV replication % left” value worked out at 103.3%.

`O=C(O)/C=C\C(=O)O.O=C(O)/C=C\C(=O)O.OCCN1CCN(CCCN2c3ccccc3Sc3ccc(C(F)(F)F)cc32)CC1` [PC-084]: the “SFV replication % left” value is on record as 98.9%.

In the case of `C[C@H](CCC(=O)O)[C@H]1CC[C@H]2[C@@H]3CC[C@@H]4C[C@H](O)CC[C@]4(C)[C@H]3C[C@H](O)[C@]12C` [PC-054], the “SFV replication % left” value stood at 86.5%.

With `Oc1c(I)cc(Cl)c2cccnc12` [PC-049], the “SFV replication % left” value was determined as 71.9%.

Consider `C#CCN(C)[C@H](C)Cc1ccccc1.Cl` [PC-055], for which the “SFV replication % left” value stood at 57.0%.

In the case of `O=C1O[C@H]([C@@H](O)CO)C(O)=C1O` [NC-004], the “SFV replication % left” value was found to be 81.4%.

Turning to `O=C1CN=C(c2ccccc2)c2cc([N+](=O)[O-])ccc2N1` [PC-130], the “SFV replication % left” value amounted to 46.0%.

On to `NC(=O)c1cccnc1` [PC-129], for which the “SFV replication % left” value is 116.9%.

For `COc1cc(-c2oc3cc(O)cc(O)c3c(=O)c2O)ccc1O` [NC-056], the “SFV replication % left” value was 28.9%.

For the molecule `OCCN1CCN(CCCN2c3ccccc3C=Cc3ccccc32)CC1` [PC-139], the “SFV replication % left” value is reported as 27.5%.

For the molecule `Cl.NCC(O)c1ccc(O)cc1` (stereo not drawn) [PC-138], the “SFV replication % left” value is 102.1%.

`C#C[C@]1(O)CC[C@H]2[C@@H]3CCC4=CC(=O)CC[C@@H]4[C@H]3CC[C@@]21C` [PC-134]: the “SFV replication % left” value is 107.8%.

Regarding `O=c1cc(-c2ccc(O)cc2)oc2cc(O)cc(O)c12` [NC-003], the “SFV replication % left” value was 18.0%.

Consider `C[N+]1(C)[C@@H]2CC[C@H]1C[C@@H](OC(=O)C(CO)c1ccccc1)C2.[Br-]` (stereo partly drawn) [PC-117], for which the “SFV replication % left” value was 70.9%.

As to `CCN(CCO)CCCC(C)Nc1ccnc2cc(Cl)ccc12.O=S(=O)(O)O` (stereo not drawn) [PC-093], the “SFV replication % left” value came to 128.9%.

Consider `O=C(O)c1c(O)cccc1O` [NC-025], for which the “SFV replication % left” value stood at 118.7%.

`CN(Cc1cc(Br)cc(Br)c1N)C1CCCCC1.Cl` [PC-024]: the “SFV replication % left” value is on record as 64.8%.

Take `Cc1ccc(C(C)C)c(O)c1` [NC-101]: the “SFV replication % left” value is on record as 42.0%.

For the molecule `COc1cc(C(=O)O)cc(OC)c1O` [NC-097], the “SFV replication % left” value was 61.1%.

In the case of `CC12CCC(CC1=O)C2(C)C` (stereo not drawn) [PC-036], the “SFV replication % left” value came to 83.9%.

For the molecule `Br.CC(Cc1ccc(O)cc1)NCC(O)c1cc(O)cc(O)c1` (stereo not drawn) [PC-081], the “SFV replication % left” value is listed as 106.6%.
